23 compounds from US20220220095A1, “N-((HETEROARYL)METHYL)-1-TOSYL-1H-PYRAZOLE-3-CARBOXAMIDE DERIVATIVES AS Kv3 POTASSIUM CHANNEL ACTIVATORS FOR TREATING NEUROLOGICAL AND [sequence] DISORDERS” (H. Lundbeck A/S, priority 2019, published 2022) can be followed below.

For this assay, the target named is T1, hKv3.1b (Homo sapiens, UniProt P48547).
T1 construct: expressed in transfected cells
T1 sequence (P48547 1-585 isoform P48547-2): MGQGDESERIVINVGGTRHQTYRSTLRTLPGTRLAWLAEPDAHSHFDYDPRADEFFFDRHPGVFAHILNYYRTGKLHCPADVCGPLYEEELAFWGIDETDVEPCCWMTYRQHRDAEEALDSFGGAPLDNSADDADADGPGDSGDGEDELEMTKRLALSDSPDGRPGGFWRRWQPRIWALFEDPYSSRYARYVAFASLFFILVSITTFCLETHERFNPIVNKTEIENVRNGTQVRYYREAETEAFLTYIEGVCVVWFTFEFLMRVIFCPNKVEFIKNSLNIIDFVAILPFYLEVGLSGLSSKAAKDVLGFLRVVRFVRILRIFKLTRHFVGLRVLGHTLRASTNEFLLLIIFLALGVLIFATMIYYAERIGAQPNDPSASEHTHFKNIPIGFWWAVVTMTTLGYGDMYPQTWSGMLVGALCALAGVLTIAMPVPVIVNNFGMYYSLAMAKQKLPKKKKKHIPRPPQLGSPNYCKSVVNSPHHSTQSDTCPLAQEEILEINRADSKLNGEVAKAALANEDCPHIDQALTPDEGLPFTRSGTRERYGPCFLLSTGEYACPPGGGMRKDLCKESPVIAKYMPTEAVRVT
In words: Automated whole-cell patch-clamp (QPatch-16x) on HEK-293 cells stably expressing hKv3.1b: shift of voltage threshold for channel activation. It counts as cell-based. The conditions noted are these: HEK-293 hKv3.1b; for ECdelta5mV: concentration needed to shift the threshold 5 mV, read out from fitted concentration response curve; for Max Delta threshold: maximum absolute shift of activation threshold to more hyperpolarized potentials at the tested concentrations (0.37, 1.11, 3.33, 10, 30 μM). How it is done: HEK-293 cells stably expressing hKv3.1b was used for the experiments. Cells were cultured in DMEM medium supplemented with 10% Fetal Bovine Serum, 100 ug/mL Geneticidin and 100 u/mL Penicillin/Streptomycin (all from Gibco). Cells were grown to 80-90% confluency at 37° C. and 5% CO2. On the day of the experiment the cells were detached from the tissue culture flasks by Detachin and resuspended in serum free medium containing 25 mM HEPES and transferred to the cell hotel of the QPatch. The cells were used for experiments 0-5 hours after detachment.
Patch-clamp recordings were performed using the automated recording system QPatch-16x (Sophion Bioscience, Denmark). Cells were centrifuged, SFM removed and the cells were resuspended in extracellular buffer containing (in mM): 145 NaCl, 4 KCl, 1 MgCl2, 2 CaCl2, 10 HEPES and 10 glucose (added fresh on the day of experiment); pH 7.4 adjusted with NaOH, 305 mOsm adjusted with sucrose.
Single cell whole-cell recordings were carried out using an intracellular solution containing (in mM): 120 KCl, 32.25/10 KOH/EGTA, 5.374 CaCl2, 1.75 MgCl2, 10 HEPES, 4 Na2ATP (added fresh on the day), pH 7.2 adjusted with KOH, […] adjusted with sucrose. Cell membrane potentials were held at −80 mV and currents were evoked by voltage steps (200 ms duration) from −70 mV to +10 mV (in 10 mV increments).
Leak subtraction protocol was applied at −33% of the sweep amplitude, and serial resistance values were constantly monitored.
Any cell where serial resistance exceeded 25 MOhm, membrane resistance less than 200 MOhm or current size at −10 mV less than 200 pA was eliminated from the subsequent analysis.
Data analysis was performed using Sophion's QPatch assay software in combination with Microsoft Excel™ (Redmond, Wash., USA).
Current voltage relationships were plotted from the peak current at the individual voltage steps normalized to the vehicle addition at 10 mV. The voltage threshold for channel activation was defined as 5% activation of the peak current at 10 mV in presence of vehicle. The activity of the compounds was described as the ability to shift this current voltage relationship to more hyperpolarized potentials and is given as the maximum absolute shift possible at the tested concentrations (0.37, 1.11, 3.33, 10, 30 μM). Concentration response curves were plotted from the threshold shift at the individual concentrations and were fitted excel fit model 205 sigmodal dose-response model (fit=A+((B−A)/1+((C/x)^D)))), where A is the minimum value, B the maximum value, C the EC50 value and D the slope of the curve. The concentration needed to shift the threshold 5 mV was readout from this curve (ECdelta 5 mV).

For `Cc1ccc(S(=O)(=O)n2ccc(C(=O)NCc3nccs3)n2)cc1` [Compound 59, 1-(4-methylbenzene-1-sulfonyl)-N-[(1,3-thiazol-2-yl)methyl]-1H-pyrazole-3-carboxamide], the ECdelta5mV amounted to 3000 nM and the “Max Delta threshold” value is recorded as 14 mV.
In the case of `COc1ccc(S(=O)(=O)n2ccc(C(=O)NCc3cnoc3)n2)cc1` [Compound 9, 1-(4-methoxybenzene-1-sulfonyl)-N-[(1,2-oxazol-4-yl)methyl]-1H-pyrazole-3-carboxamide], the ECdelta5mV came to 3900 nM and the “Max Delta threshold” value is 13 mV.
On the same counts, the results for `Cc1ccc(S(=O)(=O)n2ccc(C(=O)NCc3cncnc3)n2)cc1` [Compound 54, 1-(4-methylbenzene-1-sulfonyl)-N-[(pyrimidin-5-yl)methyl]-1H-pyrazole-3-carboxamide] are 2400 nM and 21 mV.
`Cc1cccc(S(=O)(=O)n2ccc(C(=O)NCc3cc(C)no3)n2)c1` [Compound 19, 1-(3-methylbenzene-1-sulfonyl)-N-[(3-methyl-1,2-oxazol-5-yl)methyl]-1H-pyrazole-3-carboxamide]: the ECdelta5mV amounted to 2400 nM and the “Max Delta threshold” value was found to be 17 mV.
On the same counts, the results for `Cc1cnc(CNC(=O)c2ccn(S(=O)(=O)c3ccc(C4CC4)cc3)n2)cn1` [Compound 79, 1-(4-cyclopropylphenyl)sulfonyl-N-[(5-methylpyrazin-2-yl)methyl]pyrazole-3-carboxamide] are 990 nM and 32 mV.
`Cc1ccc(S(=O)(=O)n2ccc(C(=O)NCc3cnc(C)nc3)n2)cc1` [Compound 50, 1-(4-methylbenzene-1-sulfonyl)-N-[(2-methylpyrimidin-5-yl)methyl]-1H-pyrazole-3-carboxamide]: the ECdelta5mV worked out at 1700 nM and the “Max Delta threshold” value is 24 mV.
`Cc1ccc(S(=O)(=O)n2ccc(C(=O)NCc3ncn(C)n3)n2)cc1` [Compound 60, 1-(4-methylbenzene-1-sulfonyl)-N-[(1-methyl-1H-1,2,4-triazol-3-yl)methyl]-1H-pyrazole-3-carboxamide]: the ECdelta5mV was 2900 nM and the “Max Delta threshold” value is on record as 18 mV.
With `Cc1ccc(S(=O)(=O)n2ccc(C(=O)NCc3ncc(C)cn3)n2)cc1` [Compound 15, 1-(4-methylbenzene-1-sulfonyl)-N-[(5-methylpyrimidin-2-yl)methyl]-1H-pyrazole-3-carboxamide], the ECdelta5mV was 2600 nM and the “Max Delta threshold” value was determined as 23 mV.
As to `COc1ccc(S(=O)(=O)n2ccc(C(=O)NCc3cnc(C)cn3)n2)c(Cl)c1` [Compound 82, 1-(2-chloro-4-methoxy-phenyl)sulfonyl-N-[(5-methylpyrazin-2-yl)methyl]pyrazole-3-carboxamide], the ECdelta5mV was 1600 nM and the “Max Delta threshold” value was 29 mV.
Regarding `COc1ccc(S(=O)(=O)n2ccc(C(=O)NCc3ncn(C)n3)n2)cc1` [Compound 13, 1-(4-methoxybenzene-1-sulfonyl)-N-[(1-methyl-1H-1,2,4-triazol-3-yl)methyl]-1H-pyrazole-3-carboxamide], the ECdelta5mV was determined as 4000 nM and the “Max Delta threshold” value is 16 mV.
As to `Cc1ccc(S(=O)(=O)n2ccc(C(=O)NCc3cscn3)n2)cc1` [Compound 52, 1-(4-methylbenzene-1-sulfonyl)-N-[(1,3-thiazol-4-yl)methyl]-1H-pyrazole-3-carboxamide], the ECdelta5mV amounted to 1500 nM and the “Max Delta threshold” value was found to be 16 mV.
For `Cc1cnc(CNC(=O)c2ccn(S(=O)(=O)c3ccc(Cl)cc3C)n2)cn1` [Compound 67, 1-(4-chloro-2-methyl-phenyl)sulfonyl-N-[(5-methylpyrazin-2-yl)methyl]pyrazole-3-carboxamide], the ECdelta5mV is 1100 nM and the “Max Delta threshold” value came to 34 mV.
Take `Cc1cnc(CNC(=O)c2ccn(S(=O)(=O)c3cccc(Cl)c3)n2)cn1` [Compound 75, 1-(3-chlorophenyl)sulfonyl-N-[(5-methylpyrazin-2-yl)methyl]pyrazole-3-carboxamide]: the ECdelta5mV is 3200 nM and the “Max Delta threshold” value was 17 mV.
Consider `Cc1ccc(S(=O)(=O)n2ccc(C(=O)NCc3ncc(C)o3)n2)cc1` [Compound 30, 1-(4-methylbenzene-1-sulfonyl)-N-[(5-methyl-1,3-oxazol-2-yl)methyl]-1H-pyrazole-3-carboxamide], for which the ECdelta5mV came to 3400 nM and the “Max Delta threshold” value came out at 15 mV.
Regarding `Cc1cnc(CNC(=O)c2ccn(S(=O)(=O)c3ccc(OC(F)F)cc3)n2)cn1` [Compound 65, 1-[4-(difluoromethoxy)phenyl]sulfonyl-N-[(5-methylpyrazin-2-yl)methyl]pyrazole-3-carboxamide], the ECdelta5mV worked out at 3600 nM and the “Max Delta threshold” value was found to be 25 mV.
For the compound `Cc1ccc(S(=O)(=O)n2ccc(C(=O)NCc3cnccn3)n2)cc1` [Compound 24, 1-(4-methylbenzene-1-sulfonyl)-N-[(pyrazin-2-yl)methyl]-1H-pyrazole-3-carboxamide], the ECdelta5mV was 2000 nM and the “Max Delta threshold” value was determined as 23 mV.
As for `COc1ccc(S(=O)(=O)n2ccc(C(=O)NCc3cnc(C)cn3)n2)c(F)c1` [Compound 68, 1-(2-fluoro-4-methoxy-phenyl)sulfonyl-N-[(5-methylpyrazin-2-yl)methyl]pyrazole-3-carboxamide], the ECdelta5mV was 2400 nM and the “Max Delta threshold” value worked out at 42 mV.
In the case of `Cc1cnc(CNC(=O)c2ccn(S(=O)(=O)c3ccc(Cl)cc3)n2)cn1` [Compound 76, 1-(4-chlorophenyl)sulfonyl-N-[(5-methylpyrazin-2-yl)methyl]pyrazole-3-carboxamide], the ECdelta5mV is 1500 nM and the “Max Delta threshold” value is listed as 25 mV.
For the compound `Cc1noc(CNC(=O)c2ccn(S(=O)(=O)c3ccccc3C)n2)n1` [Compound 23, 1-(2-methylbenzene-1-sulfonyl)-N-[(3-methyl-1,2,4-oxadiazol-5-yl)methyl]-1H-pyrazole-3-carboxamide], the ECdelta5mV is recorded as 5300 nM and the “Max Delta threshold” value is given as 13 mV.
For `COc1ccc(S(=O)(=O)n2ccc(C(=O)NCc3cc(C)no3)n2)cc1` [Compound 38, 1-(4-methoxybenzene-1-sulfonyl)-N-[(3-methyl-1,2-oxazol-5-yl)methyl]-1H-pyrazole-3-carboxamide], the ECdelta5mV was 1100 nM and the “Max Delta threshold” value is listed as 21 mV.
On the same counts, the results for `Cc1ccc(S(=O)(=O)n2ccc(C(=O)NCc3ccon3)n2)cc1` [Compound 58, 1-(4-methylbenzene-1-sulfonyl)-N-[(1,2-oxazol-3-yl)methyl]-1H-pyrazole-3-carboxamide] are 2000 nM and 17 mV.
In the case of `COc1ccc(S(=O)(=O)n2ccc(C(=O)NCc3cnccn3)n2)cc1` [Compound 43, 1-(4-methoxybenzene-1-sulfonyl)-N-[(pyrazin-2-yl)methyl]-1H-pyrazole-3-carboxamide], the ECdelta5mV was found to be 1600 nM and the “Max Delta threshold” value was found to be 25 mV.
In the case of `COc1ccc(S(=O)(=O)n2ccc(C(=O)NCc3ccc(C)cn3)n2)cc1` [Compound 40, 1-(4-methoxybenzene-1-sulfonyl)-N-[(5-methylpyridin-2-yl)methyl]-1H-pyrazole-3-carboxamide], the ECdelta5mV was found to be 2000 nM and the “Max Delta threshold” value was 21 mV.
